Test results reported in PubChem BioAssay AID1259407 (Chemical Carcinogenesis Research Information System (CCRIS), 2018).
The source made the active and inactive calls. How the calls were made is not given here.

System: CCRIS mutagenicity, Ames/micronucleus/aberration tests
Test: CCRIS mutagenicity studies
[1] = Test System: AMES SALMONELLA TYPHIMURIUM, Strain/Indicator: TA98, Metabolic Activation: NONE, Method: STANDARD PLATE
[2] = Test System: AMES SALMONELLA TYPHIMURIUM, Strain/Indicator: TA100, Metabolic Activation: NONE, Method: STANDARD PLATE
[3] = Test System: AMES SALMONELLA TYPHIMURIUM, Strain/Indicator: TA100, Metabolic Activation: RAT, LIVER, S-9, AROCLOR 1254, Method: STANDARD PLATE
[4] = Test System: AMES SALMONELLA TYPHIMURIUM, Strain/Indicator: TA1535, Metabolic Activation: NONE, Method: STANDARD PLATE
[5] = Test System: AMES SALMONELLA TYPHIMURIUM, Strain/Indicator: TA1537, Metabolic Activation: NONE, Method: STANDARD PLATE
[6] = Test System: Ames Salmonella typhimurium, Strain/Indicator: TA102, Metabolic Activation: None, Method: Preincubation

Measured: mutagenic call

Nc1ccc(S(=O)(=O)Nc2nccs2)cc1
inactive: Test System: AMES SALMONELLA TYPHIMURIUM, Strain/Indicator: TA98, Metabolic Activation: HAMSTER, LIVER, S-9, AROCLOR 1254, Method: STANDARD PLATE inactive; negative | [1] inactive; negative | Test System: AMES SALMONELLA TYPHIMURIUM, Strain/Indicator: TA98, Metabolic Activation: RAT, LIVER, S-9, AROCLOR 1254, Method: STANDARD PLATE inactive; negative | Test System: AMES SALMONELLA TYPHIMURIUM, Strain/Indicator: TA100, Metabolic Activation: HAMSTER, LIVER, S-9, AROCLOR 1254, Method: STANDARD PLATE inactive; negative | [2] inactive; negative | [3] inactive; negative | Test System: AMES SALMONELLA TYPHIMURIUM, Strain/Indicator: TA1535, Metabolic Activation: HAMSTER, LIVER, S-9, AROCLOR 1254, Method: STANDARD PLATE inactive; negative | [4] inactive; negative | Test System: AMES SALMONELLA TYPHIMURIUM, Strain/Indicator: TA1535, Metabolic Activation: RAT, LIVER, S-9, AROCLOR 1254, Method: STANDARD PLATE inactive; negative | Test System: AMES SALMONELLA TYPHIMURIUM, Strain/Indicator: TA1537, Metabolic Activation: HAMSTER, LIVER, S-9, AROCLOR 1254, Method: STANDARD PLATE inactive; negative | [5] inactive; negative | Test System: AMES SALMONELLA TYPHIMURIUM, Strain/Indicator: TA1537, Metabolic Activation: RAT, LIVER, S-9, AROCLOR 1254, Method: STANDARD PLATE inactive; negative | Test System: AMES SALMONELLA TYPHIMURIUM, Strain/Indicator: TA1538, Metabolic Activation: HAMSTER, LIVER, S-9, AROCLOR 1254, Method: STANDARD PLATE inactive; negative | Test System: AMES SALMONELLA TYPHIMURIUM, Strain/Indicator: TA1538, Metabolic Activation: NONE, Method: STANDARD PLATE inactive; negative | Test System: AMES SALMONELLA TYPHIMURIUM, Strain/Indicator: TA1538, Metabolic Activation: RAT, LIVER, S-9, AROCLOR 1254, Method: STANDARD PLATE inactive; negative | Test System: MOUSE LYMPHOMA, Strain/Indicator: L5178Y (TK+/TK-), Metabolic Activation: NONE, Method: SUSPENSION/PLATE inactive; negative. reevaluation of results: negative | Test System: MOUSE LYMPHOMA, Strain/Indicator: L5178Y (TK+/TK-), Metabolic Activation: RAT, LIVER, S-9, AROCLOR 1254, Method: SUSPENSION/PLATE inactive; negative. reevaluation of results: negative

O[C@H]1C=Cc2c(ccc3nc4ccc5ccccc5c4cc23)[C@@H]1O
active: Test System: AMES SALMONELLA TYPHIMURIUM, Strain/Indicator: TA100, Metabolic Activation: GUINEA PIG, LIVER, S-9, 3-METHYLCHOLANTHRENE, Method: STANDARD PLATE active; positive | Test System: CHINESE HAMSTER V-79, Strain/Indicator: V-79/6-THIOGUANINE, Metabolic Activation: GUINEA PIG, LIVER, S-9, 3-METHYLCHOLANTHRENE active; positive
inactive: Test System: AMES SALMONELLA TYPHIMURIUM, Strain/Indicator: TA98, Metabolic Activation: GUINEA PIG, LIVER, S-9, 3-METHYLCHOLANTHRENE, Method: STANDARD PLATE inactive; negative

CCCCNC(=O)c1cc(N)ccc1Oc1ccccc1
inactive: Test System: Ames Salmonella typhimurium, Strain/Indicator: TA98, Metabolic Activation: None, Method: Preincubation inactive; negative. data for this compound, pa10, mentioned in abstract only. | Test System: Ames Salmonella typhimurium, Strain/Indicator: TA98, Metabolic Activation: Rat, Liver, S-9, Phenobarbital and beta-naphthoflavone, Method: Preincubation inactive; negative. this compound, pa10, converted by s-9 to a hydroxy derivative. | Test System: Ames Salmonella typhimurium, Strain/Indicator: TA100, Metabolic Activation: None, Method: Preincubation inactive; negative. data for this compound, pa10, mentioned in abstract only. | Test System: Ames Salmonella typhimurium, Strain/Indicator: TA100, Metabolic Activation: Rat, Liver, S-9, Phenobarbital and beta-naphthoflavone, Method: Preincubation inactive; negative. this compound, pa10, converted by s-9 to a hydroxy derivative. | [6] inactive; negative. data for this compound, pa10, mentioned in abstract only. | Test System: Ames Salmonella typhimurium, Strain/Indicator: TA1535, Metabolic Activation: None, Method: Preincubation inactive; negative. data for this compound, pa10, mentioned in abstract only. | Test System: Ames Salmonella typhimurium, Strain/Indicator: TA1537, Metabolic Activation: None, Method: Preincubation inactive; negative. data for this compound, pa10, mentioned in abstract only.

O=C(CC(O)C(=O)OCCBr)OCCBr (stereo not drawn)
active: [3] active; positive
inactive: [1] inactive; negative | [2] inactive; negative

Oc1cc(O)c2c(c1)O[C@H](c1ccc(O)c(O)c1)[C@@H](O)C2
inactive: [6] inactive; negative | Test System: Ames Salmonella typhimurium, Strain/Indicator: TA102, Metabolic Activation: Rat, Liver, S-9, Aroclor 1254 in 0.154 M KCl, Method: Preincubation inactive; negative

OC1C=Cc2c(ccc3ccccc23)C1O (stereo not drawn)
active: [3] active; positive

CCOP(=O)(OCC)Oc1ccc([N+](=O)[O-])cc1
active: End Point: IN VITRO MICRONUCLEUS, Test System: HUMAN NEWBORN UMBILICAL CORD BLOOD, Metabolic Activation: NONE active; positive only at highest dose | End Point: IN VITRO MICRONUCLEUS, Test System: HUMAN PERIPHERAL LYMPHOCYTES (MALE/FEMALE ADULT), Metabolic Activation: NONE active; positive only at highest dose | End Point: In vitro micronucleus, Test System: Human peripheral blood lymphocytes, Metabolic Activation: None active; positive. pon1 qq, but not pon1 rr individuals exhibited significant increase in | [1] active; positive | Test System: AMES SALMONELLA TYPHIMURIUM, Strain/Indicator: TA98, Metabolic Activation: RAT, LIVER, S-9, Method: STANDARD PLATE active; positive | Test System: AMES SALMONELLA TYPHIMURIUM, Strain/Indicator: TA100, Metabolic Activation: RAT, LIVER, S-9, Method: STANDARD PLATE active; positive
inactive: [2] inactive; negative

[Zn]
inactive: [1] inactive; negative | Test System: AMES SALMONELLA TYPHIMURIUM, Strain/Indicator: TA98, Metabolic Activation: RAT, LIVER, S-9, PHENOBARBITAL, Method: STANDARD PLATE inactive; negative | Test System: AMES SALMONELLA TYPHIMURIUM, Strain/Indicator: TA102, Metabolic Activation: NONE, Method: STANDARD PLATE inactive; negative | Test System: AMES SALMONELLA TYPHIMURIUM, Strain/Indicator: TA102, Metabolic Activation: RAT, LIVER, S-9, PHENOBARBITAL, Method: STANDARD PLATE inactive; negative | [4] inactive; negative | Test System: AMES SALMONELLA TYPHIMURIUM, Strain/Indicator: TA1535, Metabolic Activation: RAT, LIVER, S-9, PHENOBARBITAL, Method: STANDARD PLATE inactive; negative | [5] inactive; negative | Test System: AMES SALMONELLA TYPHIMURIUM, Strain/Indicator: TA1537, Metabolic Activation: RAT, LIVER, S-9, PHENOBARBITAL, Method: STANDARD PLATE inactive; negative | Test System: UDS HUMAN AMNION FL CELL LINE, Strain/Indicator: THY INCORP, Metabolic Activation: NONE, Method: LIQUID SCINTILLATION COUNTING inactive; negative

[N-]=[N+]=CC(=O)OC[C@H](N)C(=O)O
active: [2] active; positive | Test System: E. COLI WP2, Strain/Indicator: WP2, Metabolic Activation: NONE, Method: STANDARD PLATE active; positive | Test System: UDS RAT HEPATOCYTES, Strain/Indicator: BROMODEOXYURIDINE INCORP, Metabolic Activation: NONE, Method: FLOW CYTOMETRIC ANALYSIS active; positive | Test System: UDS RAT HEPATOCYTES, Strain/Indicator: THY INCORP, Metabolic Activation: NONE, Method: AUTORADIOGRAPHY active; positive
